Legend:
[1] = tested on: P. falciparum male gametocytes; experiment: P. falciparum Dual Gamete Formation Assay (PfDGFA), male readout (exflagellation); type: cell-based, Plasmodium falciparum NF54; conditions: for Average inhibition male (%): average of replicates; for % inhibition male (individual replicates) R1: replicate R1; for % inhibition male (individual replicates) R4: replicate R4; for % inhibition male (individual replicates) R3: replicate R3; for Activity: hit = >50% inhibition in male or female readout in at least 3 replicates, 0 = no class assigned
Outline: (§1)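 Two sex-specific readouts come from one well: male exflagellation centres recorded by brightfield video right after activation, and female gametes scored by Cy3-anti-Pfs25 fluorescence after 24 h at 28°C.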

[2] = tested on: P. falciparum female gametocytes; experiment: P. falciparum Dual Gamete Formation Assay (PfDGFA), female readout (Pfs25-positive female gametes); type: cell-based, Plasmodium falciparum NF54; conditions: for Average inhibition female (%): average of replicates; for % inhibition female (individual replicates) R1: replicate R1; for % inhibition female (individual replicates) R3: replicate R3; for % inhibition female (individual replicates) R4: replicate R4
Outline: as §1

[3] = 2µM, 24h preincubation with gametocytes prior to induction of gametogenesis
[4] = 2µM, 24h preincubation, number of replicates with >50% inhibition in the male readout
[5] = 2µM, 24h preincubation, number of replicates with >50% inhibition in the female readout
[6] = PfDGFA at 2µM, 24h preincubation with gametocytes
[7] = number of replicates with >50% inhibition in the male readout, 2µM
[8] = number of replicates with >50% inhibition in the female readout, 2µM
[9] = 2µM, 24h preincubation, hits selected on >50% inhibition in the male readout across replicates
[10] = PfDGFA at 2µM, 24h preincubation
[11] = 2µM, 24h preincubation, hits selected on >50% inhibition in the female readout across replicates

Compound	Average inhibition male (%) [1, 3] [%]	% inhibition male (individual replicates) R1 [1, 3] [%]	% inhibition male (individual replicates) R4 [1, 3] [%]	HitlevelM [1, 4]	Average inhibition female (%) [2, 3] [%]	% inhibition female (individual replicates) R1 [2, 3] [%]	% inhibition female (individual replicates) R3 [2, 3] [%]	% inhibition female (individual replicates) R4 [2, 3] [%]	HitlevelF [2, 5]	% inhibition male (individual replicates) R3 [1, 3] [%]	HitlevelM [1, 9]	Activity [1, 10]	HitlevelF [2, 11]	other results
O=C(NCC1CCN(CCN2CCC(c3cn(CCO)c4ccccc34)CC2)CC1)c1ccc(-c2ccc(C(F)(F)F)cc2)cc1 [TCMDC-138856]	42.1	32.1	39.5	1	23.9	24.2	27.5	18.4	0					
CC1(C)CC(NCCCCCCCOc2ccc(OCc3ccccc3)cc2)CC(C)(C)N1.Cl [TCMDC-138958]														Average inhibition male (%) [1, 6]: 66.7%; % inhibition male (individual replicates) R1 [1, 6]: 71.0%; % inhibition male (individual replicates) R3 [1, 6]: 36.7%; % inhibition male (individual replicates) R4 [1, 6]: 78.9%; HitlevelM [1, 7]: 3; Average inhibition female (%) [2, 6]: 23.9%; % inhibition female (individual replicates) R1 [2, 6]: 22.5%; % inhibition female (individual replicates) R3 [2, 6]: -1.0%; % inhibition female (individual replicates) R4 [2, 6]: 34.0%; HitlevelF [2, 8]: 0
CCN1CCC2(c3cccc(OC)c3)Cc3nc4ccccc4c(-c4ccccc4)c3CC2C1 (stereo not drawn) [TCMDC-138968]	50.6	28.7	66.9	2	33.9	34.1	23.7	21.6	1	22.4				
Oc1ccc2[nH]cc(C3CCN(CCCNCc4ccc(-c5ccccc5)cc4)CC3)c2c1 [TCMDC-139047]	41.4	26.8	40.8	1	20.7	11.5	19.3	14.8	0					
NC(CC1CC(=O)N1CC(=O)O)C(=O)O (stereo not drawn) [TCMDC-139050]	-4.7	15.3	-29.8		6.8	12.5	4.8	14.4		-15.7	0	0	0	
COC(=O)c1ccc(-c2ccc(-c3cccnc3)cc2C)cc1 [TCMDC-139074]	18.8	21.7	3.9		13.5	26.9	10.2	0.5		27.9	0	0	0	
CN(C)CCCc1cc2c(cc1Cl)CCN2C(=O)Nc1ccc(-c2ccncc2)c2ccccc12 [TCMDC-139215]	2.0	5.2	8.2		5.1	27.9	-29.4	20.5		1.0	0	0	0	
CN1CCN(c2cc3c(cc2Cl)CCN3C(=O)Nc2ccc(NC(=O)c3ccc(C(F)(F)F)cc3)cc2)CC1.Cl [TCMDC-139270]														Average inhibition male (%) [1, 6]: 84.1%; % inhibition male (individual replicates) R1 [1, 6]: 90.7%; % inhibition male (individual replicates) R3 [1, 6]: 63.5%; % inhibition male (individual replicates) R4 [1, 6]: 92.9%; HitlevelM [1, 7]: 4; Average inhibition female (%) [2, 6]: 59.6%; % inhibition female (individual replicates) R1 [2, 6]: 37.1%; % inhibition female (individual replicates) R3 [2, 6]: 50.9%; % inhibition female (individual replicates) R4 [2, 6]: 69.9%; HitlevelF [2, 8]: 3

Reference: PMC10584170, “Machine learning-based phenotypic imaging to characterise the targetable biology of Plasmodium falciparum male gametocytes for the development of transmission-blocking antimalarials” (PLOS Pathogens, 2023)
